Data as given in the supplement of paper PMC8967900.

Tests used:
Experiment in all cases: selective drug sensitivity score (sDSS, relative to normal bone marrow) (sDSS (score)); higher = more potent and effective on the cell line relative to normal bone marrow cells
Settings in all cases: 72 h
697 = system: 697
ALL-PO = system: ALL-PO
ALL-SIL = system: ALL-SIL
CCRF-CEM = system: CCRF-CEM
CCRF-HSB2 = system: CCRF-HSB2
COG-LL-317 = system: COG-LL-317
COG-LL-319h = system: COG-LL-319h
COG-LL-332h = system: COG-LL-332h
DND-41 = system: DND-41
HAL-01 = system: HAL-01
JURKAT = system: JURKAT
KASUMI-2 = system: KASUMI-2
KASUMI-9 = system: KASUMI-9
LC4-1 = system: LC4-1
MOLT-4 = system: MOLT-4
NALM-6 = system: NALM-6
P12-ICHIKAWA = system: P12-ICHIKAWA
PF-382 = system: PF-382
RPMI-8402 = system: RPMI-8402
SUP-B15 = system: SUP-B15
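Also: ALL cell lines in 384-well plates, five doses spanning 10,000-fold, each plate scaled between vehicle and 100 µmol/L benzalkonium chloride controls, sDSS an adapted area-under-curve metric.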

NCCNc1ccc(NCCN)c2c1C(=O)c1ccncc1C2=O [Pixantrone] (top concentration 10000 nM)
selective drug sensitivity score 697: -0.36
selective drug sensitivity score (ALL-PO): -2.76
selective drug sensitivity score (ALL-SIL): -2.76
selective drug sensitivity score (CCRF-CEM): -2.06
selective drug sensitivity score (CCRF-HSB2): -2.16
selective drug sensitivity score (COG-LL-317): -2.76
selective drug sensitivity score (COG-LL-319h): -2.76
selective drug sensitivity score (COG-LL-332h): -2.46
selective drug sensitivity score (DND-41): -1.76
selective drug sensitivity score (HAL-01): -1.36
selective drug sensitivity score (JURKAT): -2.76
selective drug sensitivity score (KASUMI-2): -2.76
selective drug sensitivity score (KASUMI-9): -0.36
selective drug sensitivity score (LC4-1): -2.76
selective drug sensitivity score (MOLT-4): -2.76
selective drug sensitivity score (NALM-6): -2.76
selective drug sensitivity score (P12-ICHIKAWA): -2.76
selective drug sensitivity score (PF-382): -1.86
selective drug sensitivity score (RPMI-8402): -2.76
selective drug sensitivity score (SUP-B15): -2.76

CCN(CC)CCOc1ccc(/C(=C(/Cl)c2ccccc2)c2ccccc2)cc1 [Clomifene] (top concentration 10000 nM)
selective drug sensitivity score 697: 0.92
selective drug sensitivity score (ALL-PO): 0.62
selective drug sensitivity score (ALL-SIL): 0.12
selective drug sensitivity score (CCRF-CEM): -0.08
selective drug sensitivity score (CCRF-HSB2): 1.52
selective drug sensitivity score (COG-LL-317): 0.22
selective drug sensitivity score (COG-LL-319h): -0.48
selective drug sensitivity score (COG-LL-332h): 0.42
selective drug sensitivity score (DND-41): 1.62
selective drug sensitivity score (HAL-01): 4.32
selective drug sensitivity score (JURKAT): -1.28
selective drug sensitivity score (KASUMI-2): 0.82
selective drug sensitivity score (KASUMI-9): 1.72
selective drug sensitivity score (LC4-1): 4.62
selective drug sensitivity score (MOLT-4): -1.08
selective drug sensitivity score (NALM-6): -0.28
selective drug sensitivity score (P12-ICHIKAWA): 0.32
selective drug sensitivity score (PF-382): 0.72
selective drug sensitivity score (RPMI-8402): 0.32
selective drug sensitivity score (SUP-B15): 0.12

CCNCCS(=O)(=O)NC[C@@]1(c2ccccc2)SC(NC(=O)C(C)(C)C)=NN1C(=O)C(C)(C)C [Litronesib] (top concentration 1000 nM)
selective drug sensitivity score 697: 20.9
selective drug sensitivity score (ALL-PO): 14.8
selective drug sensitivity score (ALL-SIL): 19.2
selective drug sensitivity score (CCRF-CEM): 19.8
selective drug sensitivity score (CCRF-HSB2): 21.3
selective drug sensitivity score (COG-LL-317): 19.5
selective drug sensitivity score (COG-LL-319h): 22.4
selective drug sensitivity score (COG-LL-332h): 22.1
selective drug sensitivity score (DND-41): 8.64
selective drug sensitivity score (HAL-01): 1.94
selective drug sensitivity score (JURKAT): 19.2
selective drug sensitivity score (KASUMI-2): 18.9
selective drug sensitivity score (KASUMI-9): 18.4
selective drug sensitivity score (LC4-1): 19.8
selective drug sensitivity score (MOLT-4): 13.8
selective drug sensitivity score (NALM-6): 21.5
selective drug sensitivity score (P12-ICHIKAWA): 18.5
selective drug sensitivity score (PF-382): 13.7
selective drug sensitivity score (RPMI-8402): 18.7
selective drug sensitivity score (SUP-B15): 21.7

NS(=O)(=O)NCCNc1nonc1/C(=N/O)Nc1ccc(F)c(Br)c1 [Epacadostat] (top concentration 10000 nM)
selective drug sensitivity score 697: -0.26
selective drug sensitivity score (ALL-PO): -0.26
selective drug sensitivity score (ALL-SIL): -0.26
selective drug sensitivity score (CCRF-CEM): -0.26
selective drug sensitivity score (CCRF-HSB2): -0.26
selective drug sensitivity score (COG-LL-317): 1.14
selective drug sensitivity score (COG-LL-319h): -0.26
selective drug sensitivity score (COG-LL-332h): -0.26
selective drug sensitivity score (DND-41): -0.26
selective drug sensitivity score (HAL-01): 0.84
selective drug sensitivity score (JURKAT): -0.16
selective drug sensitivity score (KASUMI-2): -0.26
selective drug sensitivity score (KASUMI-9): 0.74
selective drug sensitivity score (LC4-1): -0.26
selective drug sensitivity score (MOLT-4): -0.16
selective drug sensitivity score (NALM-6): -0.26
selective drug sensitivity score (P12-ICHIKAWA): -0.26
selective drug sensitivity score (PF-382): -0.26
selective drug sensitivity score (RPMI-8402): 0.54
selective drug sensitivity score (SUP-B15): -0.26

COCC1(CO)C(=O)C2CCN1CC2 (stereo not given) [APR-246] (top concentration 10000 nM)
selective drug sensitivity score 697: 0.24
selective drug sensitivity score (ALL-PO): -1.16
selective drug sensitivity score (ALL-SIL): -1.16
selective drug sensitivity score (CCRF-CEM): -0.86
selective drug sensitivity score (CCRF-HSB2): -1.16
selective drug sensitivity score (COG-LL-317): -1.16
selective drug sensitivity score (COG-LL-319h): 7.44
selective drug sensitivity score (COG-LL-332h): -0.56
selective drug sensitivity score (DND-41): -1.16
selective drug sensitivity score (HAL-01): -0.36
selective drug sensitivity score (JURKAT): -1.16
selective drug sensitivity score (KASUMI-2): -1.16
selective drug sensitivity score (KASUMI-9): -0.66
selective drug sensitivity score (LC4-1): 0.74
selective drug sensitivity score (MOLT-4): -1.16
selective drug sensitivity score (NALM-6): 1.14
selective drug sensitivity score (P12-ICHIKAWA): -1.16
selective drug sensitivity score (PF-382): -1.16
selective drug sensitivity score (RPMI-8402): -1.16
selective drug sensitivity score (SUP-B15): 0.44

COc1cc2nccc(Oc3ccc(NC(=O)C4(C(=O)Nc5ccc(F)cc5)CC4)cc3)c2cc1OC [Cabozantinib] (top concentration 1000 nM)
selective drug sensitivity score 697: -1.42
selective drug sensitivity score (ALL-PO): 10.4
selective drug sensitivity score (ALL-SIL): 4.48
selective drug sensitivity score (CCRF-CEM): -3.62
selective drug sensitivity score (CCRF-HSB2): 1.98
selective drug sensitivity score (COG-LL-317): -3.62
selective drug sensitivity score (COG-LL-319h): -2.22
selective drug sensitivity score (COG-LL-332h): -0.12
selective drug sensitivity score (DND-41): -3.62
selective drug sensitivity score (HAL-01): 3.88
selective drug sensitivity score (JURKAT): -3.62
selective drug sensitivity score (KASUMI-2): -3.62
selective drug sensitivity score (KASUMI-9): -3.62
selective drug sensitivity score (LC4-1): -3.02
selective drug sensitivity score (MOLT-4): -0.92
selective drug sensitivity score (NALM-6): -2.82
selective drug sensitivity score (P12-ICHIKAWA): -3.62
selective drug sensitivity score (PF-382): -3.62
selective drug sensitivity score (RPMI-8402): -1.62
selective drug sensitivity score (SUP-B15): 13.5

CN1CCN(CCOc2cc(OC3CCOCC3)c3c(Nc4c(Cl)ccc5c4OCO5)ncnc3c2)CC1 [Saracatinib] (top concentration 10000 nM)
selective drug sensitivity score 697: 4.28
selective drug sensitivity score (ALL-PO): -0.02
selective drug sensitivity score (ALL-SIL): 17.7
selective drug sensitivity score (CCRF-CEM): -1.52
selective drug sensitivity score (CCRF-HSB2): 28.9
selective drug sensitivity score (COG-LL-317): 1.78
selective drug sensitivity score (COG-LL-319h): 12.8
selective drug sensitivity score (COG-LL-332h): 7.38
selective drug sensitivity score (DND-41): 2.18
selective drug sensitivity score (HAL-01): -1.32
selective drug sensitivity score (JURKAT): -0.62
selective drug sensitivity score (KASUMI-2): 1.78
selective drug sensitivity score (KASUMI-9): 2.98
selective drug sensitivity score (LC4-1): 2.98
selective drug sensitivity score (MOLT-4): 1.58
selective drug sensitivity score (NALM-6): -1.22
selective drug sensitivity score (P12-ICHIKAWA): 0.08
selective drug sensitivity score (PF-382): 8.18
selective drug sensitivity score (RPMI-8402): 4.98
selective drug sensitivity score (SUP-B15): 17

Cc1cc(Nc2cc(N3CCN(C)CC3)nc(Sc3ccc(NC(=O)C4CC4)cc3)n2)n[nH]1 [Tozasertib] (top concentration 10000 nM)
selective drug sensitivity score 697: 23.2
selective drug sensitivity score (ALL-PO): 17.3
selective drug sensitivity score (ALL-SIL): 22.4
selective drug sensitivity score (CCRF-CEM): 21.6
selective drug sensitivity score (CCRF-HSB2): 21.9
selective drug sensitivity score (COG-LL-317): 21.6
selective drug sensitivity score (COG-LL-319h): 19.2
selective drug sensitivity score (COG-LL-332h): 19.9
selective drug sensitivity score (DND-41): 0.36
selective drug sensitivity score (HAL-01): 8.36
selective drug sensitivity score (JURKAT): 1.76
selective drug sensitivity score (KASUMI-2): 12.3
selective drug sensitivity score (KASUMI-9): 18.4
selective drug sensitivity score (LC4-1): 20.6
selective drug sensitivity score (MOLT-4): 15.6
selective drug sensitivity score (NALM-6): 16.2
selective drug sensitivity score (P12-ICHIKAWA): 22.8
selective drug sensitivity score (PF-382): 7.06
selective drug sensitivity score (RPMI-8402): 4.56
selective drug sensitivity score (SUP-B15): 19.1

Cn1cc(C2=C(c3cn(C4CCN(Cc5ccccn5)CC4)c4ccccc34)C(=O)NC2=O)c2ccccc21 [Enzastaurin] (top concentration 10000 nM)
selective drug sensitivity score 697: 5.76
selective drug sensitivity score (ALL-PO): 5.96
selective drug sensitivity score (ALL-SIL): 3.96
selective drug sensitivity score (CCRF-CEM): 5.06
selective drug sensitivity score (CCRF-HSB2): 5.06
selective drug sensitivity score (COG-LL-317): 7.26
selective drug sensitivity score (COG-LL-319h): 2.26
selective drug sensitivity score (COG-LL-332h): 6.16
selective drug sensitivity score (DND-41): 4.56
selective drug sensitivity score (HAL-01): -0.34
selective drug sensitivity score (JURKAT): 4.26
selective drug sensitivity score (KASUMI-2): 2.06
selective drug sensitivity score (KASUMI-9): 4.36
selective drug sensitivity score (LC4-1): 3.26
selective drug sensitivity score (MOLT-4): 6.26
selective drug sensitivity score (NALM-6): 5.26
selective drug sensitivity score (P12-ICHIKAWA): 4.66
selective drug sensitivity score (PF-382): 3.36
selective drug sensitivity score (RPMI-8402): 5.86
selective drug sensitivity score (SUP-B15): 4.86
